Assay results reported in US5567738A, “Use of 2-(4-(4-chlorophenyl)cyclohexyl)-3-hydroxy-1,4-Naphthoquinone for the treatment of cancer” (Glaxo Wellcome Inc., priority 1992, dated 1996).

Columns and labels:
Assay type in all cases: cell-based
[1] = tested on: two cell lines derived from human fibrosarcoma cells; test: Activity against two cell lines derived from human fibrosarcoma cells in vitro; conditions: both cell lines
Method: (§1) Activity Against Human Fibrosarcoma Cells In Vitro The activities of the test compound and of a soluble carbamate derivative thereof against two cell lines derived from human fibrosarcoma cells were measured.

[2] = tested on: A549 (Human lung carcinoma); test: Proliferative assay against tumour cell line A549 in vitro; conditions: read-out: Activity (% Growth Inhibition)
Method: (§2) Activity Against Tumour Cell Lines In Vitro The activity of the test compound was evaluated using proliferative assays against a number of different turnout cell lines in vitro.

[3] = tested on: WiDr (Human colon adenocarcinoma); test: Proliferative assay against tumour cell line WiDr in vitro; conditions: read-out: Activity (% Growth Inhibition)
Method: as §2

[4] = tested on: tumour cell lines; test: Activity against tumour cell lines in vitro, all cell lines tested (proliferative assays); conditions: at 1001 μM concentration (so in the source)
Method: as §2

[5] = tested on: HT10801C; test: Activity against human fibrosarcoma cells in vitro, HT10801C
Method: as §1

[6] = tested on: P3888D1 (Mouse Leukaemia); test: Proliferative assay against tumour cell line P3888D1 in vitro; conditions: read-out: Activity (% Growth Inhibition)
Method: as §2

[7] = tested on: DLD-1 (Human colon adenocarcinoma); test: Proliferative assay against tumour cell line DLD-1 in vitro; conditions: read-out: Activity (% Growth Inhibition)
Method: as §2

[8] = tested on: HT1080SCC2; test: Activity against human fibrosarcoma cells in vitro, HT1080SCC2
Method: as §1

[9] = tested on: HCT-116 (Human colon carcinoma); test: Proliferative assay against tumour cell line HCT-116 in vitro; conditions: read-out: Activity (% Growth Inhibition)
Method: as §2

[10] = tested on: carcinoma, adenocarcinoma and fibrosarcoma cells; test: Activity against tumour cells (general statement)

IC50 [5] [µM] | IC50 [8] [µM] | Compound | activity against human fibrosarcoma cell lines [1] | inhibition at 100 µM [2] [%] | inhibition at 100 µM [3] [%] | active against all the cell lines tested [4] | inhibition at 100 µM [6] [%] | inhibition at 100 µM [7] [%] | inhibition at 100 µM [9] [%] | activity against tumour cells [10]
15 | 11 | O=C1C(O)=C([C@H]2CC[C@H](c3ccc(Cl)cc3)CC2)C(=O)c2ccccc21 [Test Compound, 2-[trans-4-(4-chlorophenyl)cyclohexyl]-3-hydroxy-1,4-naphthoquinone] | active | 86.6 | 79.4 | active | 92.3 | 94.2 | 93.8 | –
– | – | O=C1C(O)=C(C2CCC(c3ccc(Cl)cc3)CC2)C(=O)c2ccccc21 (stereo not shown) [compound of formula (II), 2-[4-(4-chlorophenyl)cyclohexyl]-3-hydroxy-1,4-naphthoquinone] | – | – | – | – | – | – | – | exhibits activity against tumour cells
